Measurements: patent US20260356849A1, “COMPOUNDS AND METHODS FOR TREATING CANCERS” (CEDARS-SINAI MEDICAL CENTER, priority 2022, published 2026)
Entries after “also recorded” stand apart in the source; their conditions may differ.

What was measured:
[1] = system: MEK1/2 interaction with GIT1, Raf, and ERK; experiment: Co-IP anti-MEK1/2 in HepG2 and RKO cells; assay type: cell-based; settings: 10 μM, 24 hours
From the text: GIT1-MAT2B scaffold complex sequesters and activates RAS/RAF/MEK/ERK signaling.

Toxicity in C57/BL6 mice = settings: mouse, in vivo
RKO cells [2] = experiment: RKO growth in liver of nude mice; assay type: in vivo; settings: 25 mg/kg ip daily for 5 days
Description: FIG. 39A-FIG. 39D depicts, in accordance with various embodiments of the invention, compound C3 inhibits human CRC growth in liver. RKO cells (2×10^6) stably expressing luciferase were injected into the liver of nude mice. Twenty days later (day 0) DMSO and compound C3 were injected intraperitoneally (ip) in FIG. 39A pilot experiment using 10 mg/kd/d×5 days, rest 2 days and repeat. FIG. 39B 25 mg/kg daily for 5 days and imaged on day 7 using IVIS Spectrum photon-counting device optical imaging system (Xenogen, Alameda, CA.). FIG. 39C graph summarizes luciferase intensity from FIG. 39B. FIG. 39D gross pictures of the livers at day 7 from FIG. 39B, point to tumors *p<0.05.
Compound C3 powder was dissolved in pure DMSO at 50 mg/ml, as a stock store in-80 °C. Stock solution was dissolved in 200 μl 0.9% saline to reach 25 mg/kg. For control group, DMSO was dissolved in 200 μl saline to achieve a concentration of DMSO in saline of 7.5%. RKO cells (2×106) stably expressing luciferase were injected directly into the liver of nude mice. Twenty days later DMSO and Compound C3 were injected intraperitoneally (ip) at a dose of 25 mg/kg daily for 5 days and imaged on day 7.

HepG2 cells [3] = experiment: Annexin V-FITC/propidium iodide assay HepG2; assay type: cell-based; settings: 5 μM, 24-48 hours
Description: (§1) FIG. 8 depicts, in accordance with various embodiments of the invention, results of an annexin V-FITC/propidium iodide binding assay performed in human and mouse hepatocytes, AML12, HEK293, HepG2, and RKO cells after treatment with 5 μM of a GIT1 inhibitor or DMSO for 24-48 hours (results are shown as mean±SE from at least 3 experiments. *p<0.05 vs. DMSO).
(§2) An annexin V-FITC/propidium iodide (PI) binding assay was performed with flow cytometry. […] Both G2/M arrest and cell death are mechanisms by which compound C3 inhibits cancer cells' growth.

RKO cells [4] = experiment: MTT assay in RKO cells; assay type: cell-based; settings: Homo sapiens
Description: (§3) The inventors identified nine inhibitors and perfomed an EdU assay after treating non-malignant (HEK293, AML12) and malignant (HepG2, MzChA-1, HT-29, RKO) cells with varying concentrations of GIT1 inhibitor for 24 hours (results are mean±SE from 3 independent experiments done in duplicates, *p<0.05 vs. DMSO). An MTT assay was also performed after treating primary human and mouse hepatocytes and liver and colon cancer cells with varying concentrations of GIT1 inhibitor for 24 hours (results are mean±SE from 3 independent experiments done in duplicates, *p<0.05 vs. DMSO). […] Percoll may be used to remove dead human hepatocytes.

MEK and ERK activity [5] = experiment: Western blot ERK and MEK activity in AML12 cells; assay type: cell-based; settings: 2-10 μM, 24 hours
MEK and ERK activity [6] = experiment: Western blot ERK and MEK activity in MC38 cells; assay type: cell-based; settings: 10 μM, 24 hours
[7] = system: non-malignant (HEK293, AML12) cells; experiment: EdU/MTT growth assay in non-malignant cells; assay type: cell-based; settings: 10 μM, 24 hours
Description: as §3

HepG2 cells [8] = experiment: MTT assay in HepG2 cells; assay type: cell-based; settings: Homo sapiens
Description: as §3

MC38 cells = experiment: MC38 CRC liver metastasis (CRLM) model in immune competent mice; assay type: in vivo
Description: FIG. 40A-FIG. 40E depicts, in accordance with various embodiments of the invention, compound C3 inhibits CRC liver metastasis in immune competent mice. MC38 cells (2.5×10^5) stably expressing luciferase where injected intrasplenically followed by splenectomy. 7 days later compound C3 (20 mg/kg on day 1 sinc MC38 grows rapidly, then 15 mg/kg daily×3 days, rest for 2 days, then 15 mg/kg×2 days) or DMSO were given ip. Small animal imaging (FIG. 40A). H&E of tumors (FIG. 40B). Luciferase intensity at various time points (FIG. 40C). Gross pictures of the livers at day 9 (FIG. 40D), ALT and AST levels after above, or compound C3 (15 mg/kg/d for 21 days), *p<0.05 vs. DMSO (FIG. 40E).
Compound C3 powder was dissolved in pure DMSO at 50 mg/ml, as a stock store in-80 °C. Stock solution was dissolved in 200 μl 0.9% saline to reach 15 mg/kg. For control group, DMSO was dissolved in 200 μl saline to achieve a concentration of DMSO in saline of 4.5%. MC38 cells (2.5×105) stably expressing luciferase were injected intrasplenically followed by splenectomy (CRLM model). Seven days later, Compound C3 (20 mg/kg on day 1, then 15 mg/kg daily ×3 days, rest for 2 days, then 15 mg/kg×2 days) or DMSO were administered ip.

MEK and ERK activity [9] = experiment: MEK and ERK activity in human hepatocytes; assay type: cell-based; settings: 10 μM
Description: Treatment of human hepatocytes with 10 μM compound C3 had no effect on MEK or ERK activity.

CyclinB1 = experiment: Cyclin B1 expression by RT-PCR, Western blotting and CHX in HepG2; assay type: cell-based
Description: HepG2 cells were treated with DMSO or compound C3 (2-5 μM) for 24 hours. […] Numbers shown below are mean±SE densitometric values.

HEK293 cells = experiment: Annexin V-FITC/propidium iodide assay HEK293; assay type: cell-based; settings: 5 μM, 24-48 hours
Description: as §1, §2

[10] = system: CRC organoids from AKPS mice; experiment: EdU assay of CRC organoids; assay type: cell-based; settings: "10M", 24 hours
Description: An EdU assay of CRC organoids from AKPS mice (APCF/Fp53F/FKRAS+SMAD4KOCDX2ERT+) was treated with […] of compound C3 for 24 hours.

RKO cells [11] = experiment: Annexin V-FITC/propidium iodide assay RKO; assay type: cell-based, human; settings: 5 μM, 24-48 hours
Description: as §1, §2

RKO cells [12] = experiment: Migration assay RKO; assay type: cell-based, human; settings: 1 μM, 24 hours
RKO cells [13] = experiment: Cell cycle flow cytometry RKO; assay type: cell-based, human; settings: 1-5 μM, 24 hours

CC1(C)Cc2nc3sc4c(=O)n(CC(=O)NCc5ccco5)cnc4c3cc2CO1 [Compound C3, 2-(8,8-Dimethyl-4-oxo-7,10-dihydro-8H-pyrano[3″,4″: 5′,6′]pyrido[3′,2′: 4,5]thieno[3,2-d]pyrimidin-3 (4H)-yl)-N-(2-furylmethyl) acetamide]
RAF/MEK/ERK recruitment [1]: reduced RAF/MEK/ERK recruitment | toxicity in C57/BL6 mice (Toxicity in C57/BL6 mice): no toxicity | overt toxicity (RKO cells [2]): without causing overt toxicity | tumor growth in liver (RKO cells [2]; imaged day 7): effective in reducing tumor growth | apoptosis, HepG2 (HepG2 cells [3]): significant apoptosis | necrosis, HepG2 (HepG2 cells [3]): significant necrosis | IC50 (RKO cells [4]): ~20 µM | ERK and MEK activities, AML12 (MEK and ERK activity [5]): not in AML12 cells | ERK and MEK activities, MC38 (MEK and ERK activity [6]): lower | cytotoxicity in non-malignant cells [7]: not in non-malignant cells | IC50 (HepG2 cells [8]): ~20 µM | tumor growth, liver metastasis (MC38 cells; ip 20 mg/kg day 1, 15 mg/kg daily ×3 days, rest 2 days, 15 mg/kg×2 days): Tumor growth was inhibited | toxicity (MC38 cells; ip 20 mg/kg day 1, then 15 mg/kg, ALT and AST): without toxicity | MEK or ERK activity, human hepatocytes (MEK and ERK activity [9]): no effect | CyclinB1 content (CyclinB1): increases CyclinB1 content; also recorded: led to cyclin B1 accumulation | CyclinB1 mRNA level (CyclinB1; HepG2, 2-5 μM, 24 hours): increases CyclinB1 mRNA level | CyclinB1 protein degradation (CyclinB1; HepG2, cycloheximide, 5 μM): inhibits its protein degradation | CyclinB1 phosphorylation (CyclinB1; associated with nuclear accumulation): promotes CyclinB1 phosphorylation | cell death, HEK293 (HEK293 cells): does not induce cell death | CRC organoid appearance [10]: does not affect appearance | CRC organoid growth [10]: inhibits CRC organoids growth | apoptosis, RKO (RKO cells [11]): significant apoptosis | migration of RKO cells (RKO cells [12]): significant inhibition in migration | G2/M phase, RKO (RKO cells [13]): G2/M phase was significantly increased | percentage of cells in G1 phase, RKO (RKO cells [13]): lowered the percentage of cells in G1 phase
